These compounds were tested against T1, C-C chemokine receptor type 1 (Homo sapiens, UniProt P32246) (assay: Compound was tested for inhibition of CCL3 binding to chemokine receptor-1; inactive at a concentration of 32 uM).
T1 sequence (P32246 whole entry): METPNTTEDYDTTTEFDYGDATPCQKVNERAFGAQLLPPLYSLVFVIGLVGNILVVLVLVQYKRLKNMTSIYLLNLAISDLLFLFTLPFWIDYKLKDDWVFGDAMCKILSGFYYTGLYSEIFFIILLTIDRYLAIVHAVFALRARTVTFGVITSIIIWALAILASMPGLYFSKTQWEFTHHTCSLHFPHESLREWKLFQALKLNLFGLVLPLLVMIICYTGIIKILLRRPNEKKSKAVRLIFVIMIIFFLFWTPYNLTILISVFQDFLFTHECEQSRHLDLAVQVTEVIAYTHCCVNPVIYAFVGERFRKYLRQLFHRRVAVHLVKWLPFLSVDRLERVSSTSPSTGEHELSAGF

IC50, < 50 µM:
CC[C@H](C)[C@H](NC(=O)c1cnc2ccccc2c1)[C@@H](O)C[C@@H](CC(C)C)C(=O)NC
CNC(=O)[C@H](CC(C)C)C[C@@H](O)[C@@H](CC1CCCCC1)NC(=O)c1cnc2ccccc2c1
CNC(=O)CC[C@H](O)[C@H](CC1CCCCC1)NC(=O)c1cnc2ccccc2c1
CNC(=O)[C@@H](CC(C)C)C[C@H](O)[C@@H](CC1CCCCC1)NC(=O)c1cnc2ccccc2c1
CNC(=O)[C@H](CC(C)C)C[C@@H](O)[C@H](CC1CCCCC1)NC(=O)c1cnc2ccccc2c1
CNC(=O)[C@@H](CC(C)C)C[C@@H](O)[C@H](CC1CCCCC1)NC(=O)c1cnc2ccccc2c1

Source: BindingDB's records for doi:10.1016/j.bmcl.2004.02.020 (Pfizer, 2004)
